Counter-ions that a name gives are not always drawn.

The term melting point denotes the temperature, or range, at which the solid turns liquid. The compound `O=C(N[C@H]1CCN(CCc2ccc(C(F)(F)F)cc2)C1)C12CC3CC(CC(C3)C1)C2` (as salt: hydrochloride) (hydrate or solvate) [Example 5, (S)-N-(1-(2-(4-trifluoromethylphenyl)ethyl)pyrrolidin-3-yl)-1-adamantanecarboxamide] gave a melting point of 214 to 215 °C.

With `O=C(N[C@H]1CCN(CCc2cccc(C(F)(F)F)c2)C1)C12CC3CC(CC(C3)C1)C2` (as salt: hydrochloride) (hydrate or solvate) [Example 11, (S)-N-(1-(2-(3-trifluoromethylphenyl)ethyl)pyrrolidin-3-yl)-1-adamantanecarboxamide], the melting point fell in the range of 160 to 163 °C.

For the compound `O=C(N[C@H]1CCN(CCc2ccccc2C(F)(F)F)C1)C12CC3CC(CC(C3)C1)C2` (as salt: hydrochloride) (hydrate or solvate) [Example 12, (S)-N-(1-(2-(2-trifluoromethylphenyl)ethyl)pyrrolidin-3-yl)-1-adamantanecarboxamide], the melting point was in the range of 127 to 128 °C.

Take `O=C(N[C@H]1CCN(CC2Cc3ccccc3C2)C1)C12CC3CC(CC(C3)C1)C2` (as salt: hydrochloride) (hydrate or solvate) [Example 18, (S)-N-(1-((2,3-dihydroinden-2-yl)methyl)pyrrolidin-3-yl)-1-adamantanecarboxamide]: the melting point was in the range of 241 to 243 °C.

`O=C(N[C@H]1CCN(CC2CCCc3ccccc32)C1)C12CC3CC(CC(C3)C1)C2` (stereo partly drawn) (as salt: hydrochloride) (hydrate or solvate) [Example 20, (S)-N-(1-((1,2,3,4-tetrahydronaphthalen-1-yl)methyl)pyrrolidin-3-yl)-1-adamantanecarboxamide] showed a melting point of 140 to 142 °C.

In turn, `O=C(N[C@H]1CCN(C2Cc3ccccc3C2)C1)C12CC3CC(CC(C3)C1)C2` (as salt: hydrochloride) (hydrate or solvate) [Example 22, (S)-N-(1-(2,3-dihydroinden-2-yl)pyrrolidin-3-yl)-1-adamantanecarboxamide] had a melting point of 278 to 279 °C.

Turning to `O=C(N[C@H]1CCN(CCc2ccccc2)C1)NC12CC3CC(CC(C3)C1)C2` (as salt: hydrochloride) (hydrate or solvate) [Example 51, (S)-1-(1-adamantyl)-3-(1-(2-phenylethyl)pyrrolidin-3-yl)urea], the melting point was in the range of 201 to 202 °C.

As to `CN(C(=O)C12CC3CC(CC(C3)C1)C2)[C@H]1CCN(CCc2ccc(F)cc2)C1` (as salt: hydrochloride) (hydrate or solvate) [Example 56, (S)-N-methyl-N-(1-(2-(4-fluorophenyl)ethyl)pyrrolidin-3-yl)-1-adamantanecarboxamide], the melting point is 253 to 254 °C.

`CN(C(=O)C12CC3CC(CC(C3)C1)C2)[C@H]1CCN(CCc2cccc(F)c2)C1` (as salt: hydrochloride) (hydrate or solvate) [Example 65, (S)-N-methyl-N-(1-(2-(3-fluorophenyl)ethyl)pyrrolidin-3-yl)-1-adamantanecarboxamide] gave a melting point of 252 to 253 °C.

`CN(C(=O)C12CC3CC(CC(C3)C1)C2)[C@@H]1CCN(CCc2ccc(F)cc2)C1` (as salt: hydrochloride) (hydrate or solvate) [Example 68, (R)-N-methyl-N-(1-(2-(4-fluorophenyl)ethyl)pyrrolidin-3-yl)-1-adamantanecarboxamide] registered a melting point of 264 to 265 °C.

Consider `O=C(NC1CCN(CCc2ccc(F)cc2)C1)N1CC2CC3CC1C[C@@H](C3)C2` (stereo partly drawn) (as salt: hydrochloride) (hydrate or solvate) [Example 69, (S)-N-(1-(2-(4-fluorophenyl)ethyl)pyrrolidin-3-yl)-(4-azatricyclo[4.3.1.1(3,8)]undecan-4-yl)carboxamide], for which the melting point was 110 to 113 °C (dec.).

For the compound `O=C(N[C@H]1CCN(C[C@H](O)c2ccccc2)C1)C12CC3CC(CC(C3)C1)C2` (as salt: hydrochloride) (hydrate or solvate) [Example 70, (S)-N-(1-((R)-2-hydroxy-2-phenylethyl)pyrrolidin-3-yl)-1-adamantanecarboxamide], the melting point lay in the range of 139 to 141 °C.

In turn, `O=C(N[C@H]1CCN(C[C@@H](O)c2ccccc2)C1)C12CC3CC(CC(C3)C1)C2` (as salt: hydrochloride) (hydrate or solvate) [Example 71, (S)-N-(1-((S)-2-hydroxy-2-phenylethyl)pyrrolidin-3-yl)-1-adamantanecarboxamide] gave a melting point of 149 to 151 °C.

`CN(C(=O)C12CC3CC(CC(C3)C1)C2)[C@H]1CCN(CCc2ccccc2F)C1` (as salt: hydrochloride) [Example 66, (S)-N-methyl-N-(1-(2-(2-fluorophenyl)ethyl)pyrrolidin-3-yl)-1-adamantanecarboxamide] showed a melting point of 241 to 242 °C.

`O=C(N[C@H]1CCN(CCc2ccc(F)cc2)C1)C(c1ccccc1)c1ccccc1` (as salt: oxalate) (hydrate or solvate) [Example 24, (S)-N-(1-(2-(4-fluorophenyl)ethyl)pyrrolidin-3-yl)diphenylacetamide] displayed a melting point of 156 to 158 °C.

For `O=C(N[C@H]1CCN(CCc2ccccc2)C1)C(c1ccccc1)c1ccccc1` (as salt: oxalate) [Example 23, (S)-N-(1-(2-phenylethyl)pyrrolidin-3-yl)diphenylacetamide], the melting point lay in the range of 191 to 192 °C.

The compound `O=C(N[C@H]1CCN(CCc2ccccc2)C1)C12CC3CC(CC(C3)C1)C2` [Example 1, (S)-N-(1-(2-phenylethyl)pyrrolidin-3-yl)-1-adamantanecarboxamide] displayed a melting point of 119 to 121 °C.

In turn, `O=C(N[C@H]1CCN(CCc2ccc(Cl)cc2)C1)C12CC3CC(CC(C3)C1)C2` [Example 3, (S)-N-(1-(2-(4-chlorophenyl)ethyl)pyrrolidin-3-yl)-1-adamantanecarboxamide] showed a melting point of 94 to 95 °C.

Compound `COc1ccc(CCN2CC[C@H](NC(=O)C34CC5CC(CC(C5)C3)C4)C2)cc1` [Example 4, (S)-N-(1-(2-(4-methoxyphenyl)ethyl)pyrrolidin-3-yl)-1-adamantanecarboxamide] showed a melting point of 81 to 83 °C.

On to `N#Cc1ccc(CCN2CC[C@H](NC(=O)C34CC5CC(CC(C5)C3)C4)C2)cc1` [Example 6, (S)-N-(1-(2-(4-cyanophenyl)ethyl)pyrrolidin-3-yl)-1-adamantanecarboxamide], for which the melting point lay in the range of 104 to 105 °C.

Regarding `O=C(N[C@H]1CCN(CCc2cccc(F)c2)C1)C12CC3CC(CC(C3)C1)C2` [Example 9, (S)-N-(1-(2-(3-fluorophenyl)ethyl)pyrrolidin-3-yl)-1-adamantanecarboxamide], the melting point lay within 87 to 89 °C.

As for `O=C(N[C@H]1CCN(CCc2ccccc2F)C1)C12CC3CC(CC(C3)C1)C2` [Example 10, (S)-N-(1-(2-(2-fluorophenyl)ethyl)pyrrolidin-3-yl)-1-adamantanecarboxamide], the melting point is 106 to 108 °C.

`O=C(N[C@H]1CCN(Cc2ccccc2)C1)C12CC3CC(CC(C3)C1)C2` [Example 13, (S)-N-(1-benzylpyrrolidin-3-yl)-1-adamantanecarboxamide] yielded a melting point of 130 to 132 °C.

The compound `O=C(N[C@H]1CCN(CCCc2ccccc2)C1)C12CC3CC(CC(C3)C1)C2` [Example 14, (S)-N-(1-(3-phenylpropyl)pyrrolidin-3-yl)-1-adamantanecarboxamide] showed a melting point of 118 to 120 °C.

`O=C(N[C@H]1CCN(CCCc2ccc(F)cc2)C1)C12CC3CC(CC(C3)C1)C2` [Example 15, (S)-N-(1-(3-(4-fluorophenyl)propyl)pyrrolidin-3-yl)-1-adamantanecarboxamide] returned a melting point of 114 to 115 °C.

`O=C(N[C@H]1CCN(CCCc2ccc(Cl)cc2)C1)C12CC3CC(CC(C3)C1)C2` [Example 16, (S)-N-(1-(3-(4-chlorophenyl)propyl)pyrrolidin-3-yl)-1-adamantanecarboxamide] displayed a melting point of 117 to 119 °C.

For `O=C(N[C@H]1CCN(CCCCc2ccccc2)C1)C12CC3CC(CC(C3)C1)C2` [Example 17, (S)-N-(1-(4-phenylbutyl)pyrrolidin-3-yl)-1-adamantanecarboxamide], the melting point lay within 82 to 84 °C.

Compound `O=C(N[C@H]1CCN(CCc2ccc(F)cc2)C1)C(C1CCCCC1)C1CCCCC1` [Example 26, (S)-N-(1-(2-(4-fluorophenyl)ethyl)pyrrolidin-3-yl)dicyclohexylacetamide] showed a melting point of 122 to 124 °C.

With `O=C(Cc1ccccc1C1CCCC1)N[C@H]1CCN(CCc2ccccc2)C1` [Example 27, N-((S)-1-(2-phenylethyl)pyrrolidin-3-yl)-2-cyclopentylphenylacetamide], the melting point lay in the range of 117 to 119 °C.

For `O=C(N[C@H]1CCN(CCc2ccc(F)cc2)C1)C1=c2ccccc2=CC=C2CC=CC=C21` [Example 36, (S)-N-(1-(2-(4-fluorophenyl)ethyl)pyrrolidin-3-yl)dibenzo[a,d]cycloheptene-5-carboxamide], the melting point was 127 to 128 °C.

With `O=C(N[C@H]1CCN(CCc2ccc(F)cc2)C1)N(C1CCCCC1)C1CCCCC1` [Example 48, (S)-1,1-dicyclohexyl-3-(1-(2-(4-fluorophenyl)ethyl)pyrrolidin-3-yl)urea], the melting point lay in the range of 97 to 98 °C.

In turn, `O=C(N[C@@H]1CCN(CCc2ccccc2)C1)C12CC3CC(CC(C3)C1)C2` [Example 63, (R)-N-(1-(2-phenylethyl)pyrrolidin-3-yl)-1-adamantanecarboxamide] gave a melting point of 118 to 120 °C.

Take `O=C(N[C@H]1CCN(CCc2ccc(F)cc2)C1)n1c2ccccc2c2ccccc21` [Example 72, (S)-N-(1-(2-(4-fluorophenyl)ethyl)pyrrolidin-3-yl)carbazole-9-carboxamide]: the melting point was in the range of 107 to 108 °C.

As for `O=C(N[C@H]1CCN(CCc2ccc(F)cc2)C1)C(c1cccs1)c1cccs1` [Example 73, (S)-2,2-di(2-thienyl)-N-(1-(2-(4-fluorophenyl)ethyl)pyrrolidin-3-yl)acetamide], the melting point was 96 to 98 °C.

`O=C(N[C@H]1CCN(CCc2ccc(F)cc2)C1)C(c1ccccc1F)c1ccccc1F` [Example 74, (S)-2,2-bis(2-fluorophenyl)-N-(1-(2-(4-fluorophenyl)ethyl)pyrrolidin-3-yl)acetamide] returned a melting point of 107 to 108 °C.

Values taken from patent publication US6468998B1, “Pyrrolidine compounds and medicinal utilization thereof” (Mitsubishi Pharma Corporation, priority 1998, dated 2002).
